Source: ChEMBL document CHEMBL4152331, “Thiodipeptides targeting the intestinal oligopeptide transporter as a general approach to improving oral drug delivery” (Eur J Med Chem, 2018)
One block for each compound: values may come before it.

Tests used:
[1] = target: T1, Solute carrier family 15 member 1 (Homo sapiens, UniProt P46059); assay: Ratio of substrate activity of FSA to compound at PepT1 in human Caco2 cells assessed as apparent permeability form apical to basolateral side at 2 mM in presence of Gly-Gln after 1 hr by HPLC analysis; details: caco-2, 1 h, 2000 µM
T1 sequence (P46059 whole entry): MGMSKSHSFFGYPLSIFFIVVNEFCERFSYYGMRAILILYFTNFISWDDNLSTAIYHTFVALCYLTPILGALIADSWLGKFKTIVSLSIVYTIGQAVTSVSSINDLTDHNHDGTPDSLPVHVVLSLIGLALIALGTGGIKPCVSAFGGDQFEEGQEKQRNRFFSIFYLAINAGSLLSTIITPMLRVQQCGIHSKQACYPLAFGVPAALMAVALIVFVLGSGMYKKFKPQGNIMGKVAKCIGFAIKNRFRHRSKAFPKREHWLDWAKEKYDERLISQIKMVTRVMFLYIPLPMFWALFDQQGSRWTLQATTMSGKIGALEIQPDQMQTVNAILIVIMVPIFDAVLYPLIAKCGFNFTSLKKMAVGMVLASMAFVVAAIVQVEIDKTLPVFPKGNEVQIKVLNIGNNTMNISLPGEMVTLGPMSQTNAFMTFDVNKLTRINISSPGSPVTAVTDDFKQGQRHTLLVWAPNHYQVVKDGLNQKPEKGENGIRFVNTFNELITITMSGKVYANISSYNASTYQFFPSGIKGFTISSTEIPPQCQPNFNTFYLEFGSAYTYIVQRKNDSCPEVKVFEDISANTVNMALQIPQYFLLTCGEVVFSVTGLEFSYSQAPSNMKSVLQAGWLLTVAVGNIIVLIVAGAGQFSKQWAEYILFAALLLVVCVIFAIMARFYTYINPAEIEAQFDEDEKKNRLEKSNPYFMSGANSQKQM

PepT1 = target: T2, PepT1 (Homo sapiens, UniProt P46059); assay: Substrate activity at PepT1 in human Caco2 cells assessed as apparent permeability form apical to basolateral side at 2 mM in presence of Gly-Gln after 1 hr by HPLC analysis; details: Caco-2, with Gly-Gln
T2 sequence (P46059 whole entry): T1 sequence (P46059 whole entry)

[2] = Half life in rat liver homogenate at 0.5 mM after 24 hrs by HPLC analysis; format: ADME, tissue-based
Caco-2 = assay: Ratio of apparent permeability of FSA to compound in human Caco2 cells from apical to basolateral side at 2 mM after 1 hr by HPLC analysis; details: caco-2, 1 h, 2000 µM
Rattus norvegicus [3] = assay: AUC in Sprague-Dawley rat assessed as ibuprofen release level at 10 mg/kg, po by LC-MS/MS analysis; details: in vivo
Rattus norvegicus [4] = assay: Cmax in Sprague-Dawley rat assessed as ibuprofen release level at 10 mg/kg, po by LC-MS/MS analysis; details: in vivo
Rattus norvegicus [5] = assay: Tmax in Sprague-Dawley rat assessed as ibuprofen release level at 10 mg/kg, po by LC-MS/MS analysis; details: in vivo
Rattus norvegicus [6] = assay: Relative bioavailability in Sprague-Dawley rat assessed as ibuprofen release level at 10 mg/kg, po by LC-MS/MS analysis; details: in vivo
[7] = target: T3, Solute carrier family 15 member 1 (Oryctolagus cuniculus, UniProt P36836); assay: Binding affinity to rabbit PepT1 expressed in Xenopus laevis oocytes assessed as inhibition of [3H]-D-Phe-L-Gln uptake by Michaelis-Menten kinetics analysis; format: ADME, cell-based
T3 sequence (P36836 whole entry): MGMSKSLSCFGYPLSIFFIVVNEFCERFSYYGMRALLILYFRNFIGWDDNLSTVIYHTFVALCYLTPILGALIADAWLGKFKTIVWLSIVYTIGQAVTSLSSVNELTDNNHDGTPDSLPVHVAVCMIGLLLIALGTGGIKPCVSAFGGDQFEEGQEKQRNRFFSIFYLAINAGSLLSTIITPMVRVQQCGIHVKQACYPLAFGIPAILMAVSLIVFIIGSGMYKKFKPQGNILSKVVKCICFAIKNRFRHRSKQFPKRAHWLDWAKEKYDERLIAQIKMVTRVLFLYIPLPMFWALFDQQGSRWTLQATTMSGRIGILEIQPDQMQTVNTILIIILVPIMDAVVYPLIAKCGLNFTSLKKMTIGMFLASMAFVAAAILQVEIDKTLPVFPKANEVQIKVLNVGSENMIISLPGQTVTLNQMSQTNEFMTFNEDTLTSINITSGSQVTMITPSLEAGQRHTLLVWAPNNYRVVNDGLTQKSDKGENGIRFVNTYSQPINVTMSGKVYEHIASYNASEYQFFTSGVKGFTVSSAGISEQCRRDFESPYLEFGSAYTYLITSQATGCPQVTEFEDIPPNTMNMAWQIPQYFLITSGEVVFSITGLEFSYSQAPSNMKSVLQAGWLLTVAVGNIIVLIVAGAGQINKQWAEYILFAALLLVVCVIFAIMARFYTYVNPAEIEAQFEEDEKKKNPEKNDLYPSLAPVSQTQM

[8] = Stability of the compound in pH 5.5 buffer; format: physicochemical
Rattus norvegicus [9] = assay: Bioavailability in Sprague-Dawley rat at 6 mg/kg, po by LC-MS/MS analysis; details: in vivo
[10] = Apparent permeability of the compound in human Caco2 cells from apical to basolateral side at 2 mM after 1 hr by HPLC analysis; details: Caco-2

Ratio [1]: 1.07 | Papp A→B at 1 h, 2000 µM (PepT1): 2.1 ×10⁻⁶ cm/s | half-life at 500 µM [2]: 17.9 h | Ratio (Caco-2): 1.29 | AUC (Rattus norvegicus [3]): 700 ng·h/mL | Cmax (Rattus norvegicus [4]): 200 ng/mL | Tmax (Rattus norvegicus [5]): 3.2 h | F (Rattus norvegicus [6]): 2.8%
SMILES: CC(C)Cc1ccc([C@@H](C)C(=O)OC[C@H](NC(=S)[C@H](C)N)C(=O)O)cc1

Ki [7]: Nd(Unstable) | Stability [8]: Unstable
SMILES: C[C@H](N)C(=S)N[C@@H](CC(=O)OCCOCn1cnc2c(=O)[nH]c(N)nc21)C(=O)O

F (Rattus norvegicus [9]): 100%
SMILES: CC(C)Cc1ccc(C(C)C(=O)O)cc1 (configuration not stated) [IBUPROFEN]

Ratio [1]: 1.3 | Ki ([7]; read-out: Ki): 80 µM | Papp A→B at 1 h, 2000 µM [10]: 9.7 ×10⁻⁶ cm/s | Papp A→B at 1 h, 2000 µM (PepT1): 4.4 ×10⁻⁶ cm/s | Ratio (Caco-2): 1.94
SMILES: COc1ccc2cc(CC/C(C)=N/OCCOC(=O)C[C@H](NC(=S)[C@H](C)N)C(=O)O)ccc2c1

SMILES: C[C@H](N)C(=S)N[C@@H](COC(=O)CC1(CN)CCCCC1)C(=O)O
Ratio [1]: 0.69 | Papp A→B at 1 h, 2000 µM (PepT1): 0.4 ×10⁻⁶ cm/s | Ratio (Caco-2): 0.46

Ki [7]: Nd(Unstable) | Stability [8]: Unstable
SMILES: CC(=O)Oc1ccccc1C(=O)OCCOCCOCCOC(=O)C[C@H](NC(=S)[C@H](C)N)C(=O)O

Ratio [1]: 0.89 | Papp A→B at 1 h, 2000 µM [10]: 0.5 ×10⁻⁶ cm/s | Papp A→B at 1 h, 2000 µM (PepT1): 0.5 ×10⁻⁶ cm/s | half-life at 500 µM [2]: 7.3 h | Ratio (Caco-2): 0.41
SMILES: CC(C)c1cccc(C(C)C)c1OC(=O)C[C@H](NC(=S)[C@H](C)N)C(=O)O

Papp A→B at 1 h, 2000 µM (PepT1): 1.9 ×10⁻⁶ cm/s
SMILES: C[C@H](NC(=O)[C@@H](N)Cc1ccccc1)C(N)=S
